This assay has as its system A375 cells. Briefly: Assay 1: A375 cells treated with S1152, S1008 and compound, immunofluorescence (sc-365823) signal. The class given is cell-based. The settings on record: 1 μM S1152 + 0.5 μM S1008, one day. Here is the method:
One thousand four hundred A375 cells were seeded in each well of a 384 well microplate. One day later they were treated with 1 μM S1152 (Selleckchem) in dimethyl sulfoxide, 0.5 μM S1008 (Selleckchem) and dose ranges of invention compounds for one day in Dulbecco's Modified Eagle's Medium supplemented with 10% fetal calf serum and 2 mM (2S)-2-amino-4-carbamoylbutanoic acid. Wells were incubated with 4% polyoxymethylene (Sigma Aldrich 158127) at ambient temperature. […] After one minute phosphate-buffered saline was replaced with 0.2% polyethylene glycol octylphenyl ether in phosphate-buffered saline. […] 1% aminoethanoic acid in phosphate-buffered saline was added for ten minutes at ambient temperature. […] After one hour at ambient temperature in the dark, signal in wells was measured with a Acumen Cellista. 3,8-Diamino-5-[3-(diethylmethylammonio)propyl]-6-phenylphenanthridinium diiodide-positive objects were defined in FL3 (565-600 nm) with a perimeter between 50-800 μm and a total intensity of 10000-1000000 FLU. Signal in FL2 (500-530 nm) was measured in defined objects. A normalized ratio of total In FL2 over total In FL3 staining was log transformed. A non-linear regression (variable slope, 4 parameters) was used to calculate EC50 values using GraphPad Prism (Version 7.0d).
In an alternative procedure, assay 1 has been affected by changing the counteratain. […] Cells were incubated with 0.5 μg/ml 2-(4-Amidinophenyl)-6-indolecarbamidine dihydrochloride, 4′,6-Diamidino-2-phenylindole dihydrochloride (Sigma D9542) in phosphate-buffered saline for at least 30 minutes at ambient temperature in the dark. A Celigo Imager (Nexcelom) was used to acquire images in the blue and green channel. The blue channel was used as a mask to define the area for the green signal. The average integrated intensity of the green signal was normalized and a non-linear regression (variable slope, 4 parameter) was used to calculate the EC50 values using GraphPad Prism (Version 8.4)

Turning to `CC(=O)N1C[C@H](c2nc(Nc3cccc(F)c3)cc(-c3cccnc3)n2)CC[C@H]1C` [Compound 00015, (+/+)-trans-1-(5-(4-((3-fluorophenyl)amino)-6-(pyridin-3-yl)pyrimidin-2-yl)-2-methylpiperidin-1-yl)ethan-1-one], the EC50 (usually the concentration at which the effect is half-maximal) (Homo sapiens, A-375, 24 h) is above 10000 nM.

On to `CC(=O)N1C[C@H](c2nc(Nc3ccc4[nH]ccc4c3)cc(-c3cccnc3)n2)CC[C@@H]1C` [Compound 00028, 1-((2S,5R)-5-(4-((1H-indol-5-yl)amino)-6-(pyridin-3-yl)pyrimidin-2-yl)-2-methylpiperidin-1-yl)ethan-1-one], for which the EC50 was below 200 nM.

On to `CC(=O)N1C[C@H](c2nc(Nc3ccc4cn[nH]c4c3)cc(-c3cccnc3)n2)CC[C@@H]1C` [Compound 00029, 1-((2S,5R)-5-(4-((1H-indazol-6-yl)amino)-6-(pyridin-3-yl)pyrimidin-2-yl)-2-methylpiperidin-1-yl)ethan-1-one], for which the EC50 was in the range of 200 to 1000 nM.

Regarding `COc1cc(F)cc(Nc2cc(-c3cccnc3)nc([C@@H]3CC[C@H](C)N(C(C)=O)C3)n2)c1` [Compound 00031, 1-((2S,5R)-5-(4-((3-fluoro-5-methoxyphenyl)amino)-6-(pyridin-3-yl)pyrimidin-2-yl)-2-methylpiperidin-1-yl)ethan-1-one], the EC50 is below 200 nM.

As for `CC(=O)N1C[C@H](c2nc(Nc3ccc4nc[nH]c4c3)cc(-c3cccnc3)n2)CC[C@@H]1C` [Compound 00032, 1-((2S,5R)-5-(4-((1H-benzo[d]imidazol-6-yl)amino)-6-(pyridin-3-yl)pyrimidin-2-yl)-2-methylpiperidin-1-yl)ethan-1-one], the half-maximal effective concentration (EC50) fell in the range of 200 to 1000 nM.

Consider `CC(=O)N1C[C@H](c2nc(Nc3ccc4[nH]nnc4c3)cc(-c3cccnc3)n2)CC[C@@H]1C` [Compound 00033, 1-((2S,5R)-5-(4-((1H-benzo[d][1,2,3]triazol-5-yl)amino)-6-(pyridin-3-yl)pyrimidin-2-yl)-2-methylpiperidin-1-yl)ethan-1-one], for which the EC50 is 200 to 1000 nM.

For the compound `CC(=O)N1C[C@H](c2nc(Nc3ccc4c(c3)B(O)OC4)cc(-c3cccnc3)n2)CC[C@@H]1C` [Compound 00034, 1-((2S,5R)-5-(4-((1-hydroxy-1,3-dihydrobenzo[c][1,2]oxaborol-6-yl)amino)-6-(pyridin-3-yl)pyrimidin-2-yl)-2-methylpiperidin-1-yl)ethan-1-one], the half-maximal effective concentration (EC50) was in the range of 200 to 1000 nM.

Turning to `CC(=O)N1C[C@H](c2nc(Nc3ccc4c(=O)[nH]ccc4c3)cc(-c3cccnc3)n2)CC[C@@H]1C` [Compound 00035, 6-((2-((3R,6S)-1-acetyl-6-methylpiperidin-3-yl)-6-(pyridin-3-yl)pyrimidin-4-yl)amino)isoquinolin-1(2H)-one], the EC50 is below 200 nM.

For the compound `CC(=O)Nc1ccc(Nc2cc(-c3cccnc3)nc([C@@H]3CC[C@H](C)N(C(C)=O)C3)n2)cc1O` [Compound 00036, N-(4-((2-((3R,6S)-1-acetyl-6-methylpiperidin-3-yl)-6-(pyridin-3-yl)pyrimidin-4-yl)amino)-2-hydroxyphenyl)acetamide], the EC50 lay in the range of 1000 to 10000 nM.

In the case of `CC(=O)N1C[C@H](c2nc(Nc3ccc4nc(C)oc4c3)cc(-c3cccnc3)n2)CC[C@@H]1C` [Compound 00037, 1-((2S,5R)-2-methyl-5-(4-((2-methylbenzo[d]oxazol-6-yl)amino)-6-(pyridin-3-yl)pyrimidin-2-yl)piperidin-1-yl)ethan-1-one], the EC50 fell in the range of 200 to 1000 nM.

As for `CC(=O)N1C[C@H](c2nc(Nc3cccc(N4CCCC4=O)c3)cc(-c3cccnc3)n2)CC[C@@H]1C` [Compound 00048, 1-(3-((2-((3R,6S)-1-acetyl-6-methylpiperidin-3-yl)-6-(pyridin-3-yl)pyrimidin-4-yl)amino)phenyl)pyrrolidin-2-one], the 50% effective concentration (EC50) is below 200 nM.

As to `CC(=O)N1C[C@H](c2nc(Nc3ccc(O)cc3)cc(-c3cccnc3)n2)CC[C@@H]1C` [Compound 00071, 1-((2S,5R)-5-(4-((4-hydroxyphenyl)amino)-6-(pyridin-3-yl)pyrimidin-2-yl)-2-methylpiperidin-1-yl)ethan-1-one], the concentration giving a half-maximal response (EC50) lay within 200 to 1000 nM.

For `COc1cncc(-c2cc(Nc3cccc(Cl)c3)nc([C@@H]3CC[C@H](C)N(C(C)=O)C3)n2)c1` [Compound 00074, 1-((2S,5R)-5-(4-((3-chlorophenyl)amino)-6-(5-methoxypyridin-3-yl)pyrimidin-2-yl)-2-methylpiperidin-1-yl)ethan-1-one], the concentration giving a half-maximal response (EC50) was below 200 nM.

As to `CC(=O)N1C[C@H](c2nc(Nc3cccc(O)c3)cc(-c3cccnc3)n2)CC[C@@H]1C` [Compound 00075, 1-((2S,5R)-5-(4-((3-hydroxyphenyl)amino)-6-(pyridin-3-yl)pyrimidin-2-yl)-2-methylpiperidin-1-yl)ethan-1-one], the EC50 is below 200 nM.

As to `CC(=O)N1C[C@H](c2nc(Nc3ccc4c(c3)NC(=O)C4)cc(-c3cccnc3)n2)CC[C@@H]1C` [Compound 00076, 6-((2-((3R,6S)-1-acetyl-6-methylpiperidin-3-yl)-6-(pyridin-3-yl)pyrimidin-4-yl)amino)indolin-2-one], the EC50 is 200 to 1000 nM.

With `CC(=O)N1C[C@H](c2nc(Nc3ccnc(F)c3)cc(-c3cncc(N4CCCC4=O)c3)n2)CC[C@@H]1C` [Compound 00106, 1-(5-(2-((3R,6S)-1-acetyl-6-methylpiperidin-3-yl)-6-((2-fluoropyridin-4-yl)amino)pyrimidin-4-yl)pyridin-3-yl)pyrrolidin-2-one], the EC50 is below 200 nM.

For the compound `CC(=O)N1C[C@H](c2nc(Nc3ccnc(C)c3)cc(-c3cncc(N4CCCC4=O)c3)n2)CC[C@@H]1C` [Compound 00108, 1-(5-(2-((3R,6S)-1-acetyl-6-methylpiperidin-3-yl)-6-((2-methylpyridin-4-yl)amino)pyrimidin-4-yl)pyridin-3-yl)pyrrolidin-2-one], the EC50 is 200 to 1000 nM.

Take `CC(=O)N1C[C@H](c2nc(Nc3ccnc(C)c3)cc(-c3cncc(C(=O)N(C)C)c3)n2)CC[C@@H]1C` [Compound 00109, 5-(2-((3R,6S)-1-acetyl-6-methylpiperidin-3-yl)-6-((2-methylpyridin-4-yl)amino)pyrimidin-4-yl)-N,N-dimethylnicotinamide]: the EC50 is above 10000 nM.

Turning to `COc1cc(-c2cc(Nc3ccnc(C)c3)nc([C@@H]3CC[C@H](C)N(C(C)=O)C3)n2)cnc1OC` [Compound 00110, 1-((2S,5R)-5-(4-(5,6-dimethoxypyridin-3-yl)-6-((2-methylpyridin-4-yl)amino)pyrimidin-2-yl)-2-methylpiperidin-1-yl)ethan-1-one], the EC50 was above 10000 nM.

Take `CC(=O)N1C[C@H](c2nc(Nc3ccnc(C)c3)cc(-c3cncc(N4CC(C(N)=O)C4)c3)n2)CC[C@@H]1C` [Compound 00114, 1-(5-(2-((3R,6S)-1-acetyl-6-methylpiperidin-3-yl)-6-((2-methylpyridin-4-yl)amino)pyrimidin-4-yl)pyridin-3-yl)azetidine-3-carboxamide]: the EC50 is above 10000 nM.

As for `CC(=O)N1C[C@H](c2nc(Nc3ccc4nccnc4c3)cc(-c3cccnc3)n2)CC[C@@H]1C` [Compound 00120, 1-((2S,5R)-2-methyl-5-(4-(pyridin-3-yl)-6-(quinoxalin-6-ylamino)pyrimidin-2-yl)piperidin-1-yl)ethan-1-one], the EC50 is below 200 nM.

For `CC(=O)N1C[C@H](c2nc(Nc3ccc4ncncc4c3)cc(-c3cccnc3)n2)CC[C@@H]1C` [Compound 00121, 1-((2S,5R)-2-methyl-5-(4-(pyridin-3-yl)-6-(quinazolin-6-ylamino)pyrimidin-2-yl)piperidin-1-yl)ethan-1-one], the EC50 was below 200 nM.

For the compound `CC(=O)N1C[C@H](c2nc(Nc3ccc4nncnc4c3)cc(-c3cccnc3)n2)CC[C@@H]1C` [Compound 00122, 1-((2S,5R)-5-(4-(benzo[e][1,2,4]triazin-6-ylamino)-6-(pyridin-3-yl)pyrimidin-2-yl)-2-methylpiperidin-1-yl)ethan-1-one], the EC50 is 200 to 1000 nM.

`CC(=O)N1C[C@H](c2nc(Nc3ccnc(C)c3)cc(-c3cncc(C4COC4)c3)n2)CC[C@@H]1C` [Compound 00127, 1-((2S,5R)-2-methyl-5-(4-((2-methylpyridin-4-yl)amino)-6-(5-(oxetan-3-yl)pyridin-3-yl)pyrimidin-2-yl)piperidin-1-yl)ethan-1-one]: the EC50 is below 200 nM.

As to `CC(=O)N1C[C@H](c2nc(Nc3cncc(C(F)F)c3)cc(-c3cnccn3)n2)CC[C@@H]1C` [Compound 00129, 1-((2S,5R)-5-(4-((5-(difluoromethyl)pyridin-3-yl)amino)-6-(pyrazin-2-yl)pyrimidin-2-yl)-2-methylpiperidin-1-yl)ethan-1-one], the EC50 is below 200 nM.

Turning to `COc1cncc(-c2cc(Nc3cncc(C)c3)nc([C@H]3CC[C@H](C)N(C(C)=O)C3)n2)c1` [Compound 00133, 1-((2S,5S)-5-(4-(5-methoxypyridin-3-yl)-6-((5-methylpyridin-3-yl)amino)pyrimidin-2-yl)-2-methylpiperidin-1-yl)ethan-1-one], under “Homo sapiens, A-375, 24 h”, the concentration for a half-maximal effect (EC50) is above 10000 nM.

The values are drawn from patent publication US12478624B2, “Heterocyclic derivatives, pharmaceutical compositions and their use in the treatment or amelioration of cancer” (Tolremo Therapeutics AG, priority 2019, dated 2025).
